Consider five compounds from patent publication US20260034116A1, “CANCER COMBINATION THERAPY INCLUDING A BCL-2 INHIBITOR” (RYVU THERAPEUTICS S.A., priority 2022, published 2026).

Structures are written as SMILES. Like-named read-outs stand apart in the source and are kept apart here.

The subject of data set [1] is MOLM-13 cells (FLT3 ITD). The data set is described as follows: in vitro standard cytotoxicity experiment (MTS), 72 h, MEN with S65487 or AZD4320. It is filed as cell-based, human. The following applies: single agent. The method, then:
(§1) In an in vitro standard cytotoxicity experiment, two AML cell lines (MOLM-13 [FLT3 ITD] and MV4-11 [FLT3 ITD]) were treated for 72 hours with MEN and S65487 either as a single agent or in combination.
(§2) In an in vitro standard cytotoxicity experiment, two AML cell lines (MOLM-13 [FLT3 ITD] and MV4-11 [FLT3 ITD]) were treated for 72 hours with MEN and AZD4320 either as a single agent or in combination.
(§3) Human acute myeloid leukemia cell lines MV4-11 and MOLM-13 were obtained from DSMZ, Braunschweig, Germany (ACC102 and ACC554). MV4-11 cells were cultured in RPMI 1640 medium (Gibco, Life Technologies, Carlsbad, CA, USA) supplemented with 10% fetal bovine serum (FBS) (Sigma, Saint Louis, CA, USA). MOLM-13 cells were grown in RPMI with 20% FBS. All cells were incubated at 37° C., 5% CO2, 80% relative humidity.
(§4) MEN1703 (alternatively referred to as “Men”, “MEN”, “MEN1703” or “SEL24/MEN1703”), in the HCl-salt form (CAS number 2769008-22-) with the IUPAC name 5,6-dibromo-4-nitro-2-(piperidin-4-yl)-1-(propan-2-yl)-1H-1,3-benzodiazole-4-amine hydrochloride (batch no. A/2201/24/1)), synthesized at Aptuit (VR); AZD4320 from MedChem Express, Monmouth Junction, NJ, USA, batch no. 64354) and S65487 from MedChem Express, Monmouth Junction, NJ, USA were dissolved in DMSO, divided into aliquots and stored at −80° C. until use. Stock solutions were added at appropriate concentration in culture medium before the addition to cells.
(§5) For cytotoxicity studies cells were seeded at appropriate density (50,000 cells/well) prior to addition of MEN and Quiz at day 0. The concentration range was previously identified in single agent cytotoxicity assays for the same time points in order to include in the combination experiment the IC10, IC25, IC50 and IC75 values for each drug and for each AML cell lines (see Tables 4 to 7). After 72 hours, CellTiter 96 Aqueous One Solution Reagent (MTS) (Promega, Madison. WI, USA) was added to assess the cell viability. […] was measured 4 h later using Tecan Infinite M200 (Tecan Trading AG, Switzerland), recording absorbance at 490 nm. Quantitative measurement of synergism/antagonism was evaluated with Combination Index (CI) on the Fraction affected (Fa) using CompuSyn (ComboSyn, Inc. Paramus, NJ, USA) (Chou TC, 2006).

The subject of data set [2] is MV4-11 cells (FLT3 ITD). The description is as above. It is filed as cell-based, human. Particulars: single agent. The method, then:
as §1, §2, §3, §4, §5

The subject of a further data set is KG1 cells (FLT3 wt). As to the kind of experiment: in vitro standard cytotoxicity assay (MTS), Ven and/or 5-Aza 48 h followed by Men 24 h. Particulars: same time points as combination; for IC50: read-out: IC50 dose level. It is filed as cell-based, human. On the procedure:
(§6) In an in vitro standard cytotoxicity assay, three AML cell lines (KG1 [FLT3 wt], MV4-11 [FLT3 ITD] and MOLM-13 [FLT3 ITD]) were treated with Ven and/or 5-Aza for 48 hours, followed by Men treatment for additional 24 hours. […] In MOLM13 cells (FLT3 ITD), the CI of the triple combination was similar to the CIs of the Men-Ven and the VenAza combinations (see Table 3).
as §3, with “lines KG-1,” for “lines”, “(ACC14, ACC102” for “(ACC102”, “ACC554). KG-1 and” for “ACC554).”, “humidity. The human acute myeloid leukemia cell line MOLM-16 was obtained from DSMZ, Braunschweig, Germany (cell line number ACC-555. MOLM-16 cells were grown in RPMI with 20% FBS (Sigma, Saint Louis, CA, USA). Cells were incubated at 37° C., 5% CO2, 80% relative humidity.” for “humidity.”
(§7) Men (alternatively referred to as “MEN1703”, in the HCI-salt form (CAS number 2769008-22-) with the IUPAC name 5,6-dibromo-4-nitro-2-(piperidin-4-yl)-1-(propan-2-yl)-1H-1,3-benzodiazole-4-amine hydrochloride (batch no. A/2201/24/1)), synthesized at Aptuit (VR) and Venetoclax (alternatively referred to as “Ven” or “ABT-199”, ChemCruz no. SC-472284A) were dissolved in DMSO, divided into aliquots and stored at-80° C. until use. Stock solutions were added at appropriate concentration in culture medium before the addition to cells. […] A stock solution was added at appropriate concentration in culture medium before the addition to cells.
(§8) For cytotoxicity studies cells were seeded at appropriate density (50.000 cells/well) prior to addition of Ven and 5-Aza at day 0. 5-Aza was added every 24 hours due to degradation (Hollen-bach PW, 2010 and Chang E, 2016). Then, after 48 hours, Men was added to cultured cells for the final 24 h (overall, a period of 72 h was tested). The concentration range was previously identified in single agent cytotoxic assay for the same time points in order to include in the combination experiment the IC10, IC25, IC50 and IC75 values for each drug and for each AML cell lines (see Tables 1 to 3). All possible combinations were assessed: Men+Ven, Ven+5-Aza, Men+5-Aza and men+5-Aza+Ven (mav). After 72 hours, CellTiter 96 Aqueous One Solution Reagent (MTS) (Promega, Madison. WI, USA) was added to assess the cell viability. […] was measured 4h later using Tecan Infinite M200 (Tecan Trading AG, Switzerland), recording absorbance at 490 nm. Quantitative measurement of synergism/antagonism was evaluated with Combination Index (CI) on the Fraction affected (Fa) using CompuSyn (ComboSyn, Inc. Paramus, NJ, USA) (Chou TC, 2006).

The subject of data set [3] is MOLM-13 cells (FLT3 ITD). The data set is described as above. It is filed as cell-based, human. The following applies: MOLM13 cells, single agent cytotoxic assay, same time points as combination; for IC50: read-out: IC50 dose level. The method, then:
as §6
as §3, with “lines KG-1,” for “lines”, “(ACC14, ACC102” for “(ACC102”, “ACC554). KG-1 and” for “ACC554).”, “humidity. The human acute myeloid leukemia cell line MOLM-16 was obtained from DSMZ, Braunschweig, Germany (cell line number ACC-555. MOLM-16 cells were grown in RPMI with 20% FBS (Sigma, Saint Louis, CA, USA). Cells were incubated at 37° C., 5% CO2, 80% relative humidity.” for “humidity.”
as §7, §8

Data set [4] concerns MV4-11 cells (FLT3 ITD). The data set is described as above. It is filed as cell-based, human. The following applies: single agent cytotoxic assay, same time points as combination; for IC50: read-out: IC50 dose level. On the procedure: as §6
as §3, with “lines KG-1,” for “lines”, “(ACC14, ACC102” for “(ACC102”, “ACC554). KG-1 and” for “ACC554).”, “humidity. The human acute myeloid leukemia cell line MOLM-16 was obtained from DSMZ, Braunschweig, Germany (cell line number ACC-555. MOLM-16 cells were grown in RPMI with 20% FBS (Sigma, Saint Louis, CA, USA). Cells were incubated at 37° C., 5% CO2, 80% relative humidity.” for “humidity.”
as §7, §8

For data set [5], the system named is broad panel of AML cell lines in xenograft models. Particulars: in vivo; cited from earlier work.
In another data set the test system is AML. The following applies: single agent in AML treatment; cited from earlier work.
Setting [6] is: Homo sapiens, KG-1, single agent cytotoxic assay.

A word on the IC10: it is the point of the concentration-response curve where the effect stands at 10%. The IC25 is the concentration at which the effect reaches the 25% level. The IC50 is the concentration needed to halve the response being measured. For orientation: IC75 means the point of the concentration-response curve where the effect stands at 75%. With `CN(CCO)CC[C@H](CSc1ccccc1)Nc1ccc(S(=O)(=O)NC(=O)c2ccc(N3CCC([C@@H](O)c4ccccc4-c4ccc(Cl)cc4)CC3)cc2)cc1S(=O)(=O)C(F)(F)F` [AZD4320], in the data set on MOLM-13 cells (FLT3 ITD) [1], the IC10 worked out at 3.4 nM, the concentration for an effect of 25% (IC25) stood at 11 nM, the IC50 was 37 nM and the IC75 turned out to be 120 nM. Besides, in the data set on MV4-11 cells (FLT3 ITD) [2], the IC10 was 0.65 nM, the IC25 came to 1.3 nM, the IC50 was found to be 2.7 nM and the IC75 is 5.5 nM.
On to `Nc1ncn([C@@H]2O[C@H](CO)[C@@H](O)[C@H]2O)c(=O)n1` [Aza, 5-Azacitidine], for which the IC50 came out at 760 nM with KG1 cells (FLT3 wt) (setting [6]); 960 nM in the data set with MOLM-13 cells (FLT3 ITD) [3] (Homo sapiens, MOLM-13); 650 nM in the data set on MV4-11 cells (FLT3 ITD) [4] (Homo sapiens). Moreover, the values for the IC10 dose level in the data set on KG1 cells (FLT3 wt) (single agent cytotoxic assay), with MOLM-13 cells (FLT3 ITD) [3] and in the data set with MV4-11 cells (FLT3 ITD) [4] were 97 nM, 83 nM and 140 nM, respectively. Moreover, the values for the IC25 dose level in the data set with KG1 cells (FLT3 wt) (single agent cytotoxic assay), with MOLM-13 cells (FLT3 ITD) [3] and in the data set with MV4-11 cells (FLT3 ITD) [4] were 270 nM, 280 nM and 300 nM, respectively. The results for the IC75 dose level in the data set with KG1 cells (FLT3 wt) (single agent cytotoxic assay), in the data set with MOLM-13 cells (FLT3 ITD) [3] and in the data set with MV4-11 cells (FLT3 ITD) [4] were 2150 nM, 3280 nM and 1410 nM, respectively.
With `CC(C)n1c(C2CCNCC2)nc2c([N+](=O)[O-])c(Br)c(Br)cc21` [Men, 5,6-dibromo-4-nitro-2-(piperidin-4-yl)-1-(pro-pan-2-yl)-1H-1,3-benzodiazole], in the data set on KG1 cells (FLT3 wt) (single agent cytotoxic assay), the IC10 dose level was found to be 151 nM, the IC25 dose level turned out to be 293 nM, the IC75 dose level was determined as 1103 nM and the IC50 was 569 nM. Moreover, in the data set with MOLM-13 cells (FLT3 ITD) [3], the IC10 dose level was 40 nM, the IC25 dose level came to 280 nM, the IC75 dose level was 10880 nM and the IC50 amounted to 1730 nM. Also, in the data set with MV4-11 cells (FLT3 ITD) [4], the IC10 dose level came out at 6 nM, the IC25 dose level amounted to 48 nM, the IC75 dose level is 2770 nM and the IC50 stood at 366 nM. Further, in the data set with MOLM-13 cells (FLT3 ITD) [1], the IC10 was 87.29 nM, the IC25 stood at 211.1 nM, the IC50 worked out at 510 nM and the IC75 came out at 1234 nM. Further, in the data set with MV4-11 cells (FLT3 ITD) [2], the IC10 came out at 13.15 nM, the IC25 turned out to be 35 nM, the half-inhibitory concentration (IC50) came out at 93 nM and the IC75 was 248.6 nM. Further, the “growth of AML cell lines in xenograft models” value in data set [5] is “inhibit the growth of a broad panel of AML cell lines in xenograft models”.
In the case of `Cc1c(N(C(=O)c2cc(-c3cc(Cl)ccc3C(=O)N3Cc4ccccc4C[C@H]3CN3CCOCC3)n(C)c2C)c2ccc(O)cc2)cc(C#N)n1C` [S65487], the IC50 in the data set on MOLM-13 cells (FLT3 ITD) [1] (Homo sapiens) turned out to be 224 nM. In the data set with MOLM-13 cells (FLT3 ITD) [1], the IC10 was determined as 14.5 nM, the IC25 turned out to be 57 nM and the IC75 came to 880 nM. In the data set on MV4-11 cells (FLT3 ITD) [2] (Homo sapiens), the IC50 came to 18 nM. In the data set with MV4-11 cells (FLT3 ITD) [2], the IC10 is 2.5 nM, the IC25 is 6.6 nM and the concentration for an effect of 75% (IC75) came to 48 nM.
As to `CC1(C)CCC(CN2CCN(c3ccc(C(=O)NS(=O)(=O)c4ccc(NCC5CCOCC5)c([N+](=O)[O-])c4)c(Oc4cnc5[nH]ccc5c4)c3)CC2)=C(c2ccc(Cl)cc2)C1` [Ven, Venetoclax], the IC50 is 1650 nM in the data set with KG1 cells (FLT3 wt) (setting [6]); 450 nM in the data set with MOLM-13 cells (FLT3 ITD) [3] (Homo sapiens, MOLM-13); 3 nM with MV4-11 cells (FLT3 ITD) [4] (Homo sapiens). For the same compound, the IC10 dose level in the data set on KG1 cells (FLT3 wt) (single agent cytotoxic assay) was found to be 180 nM; with MOLM-13 cells (FLT3 ITD) [3], 12 nM; in the data set on MV4-11 cells (FLT3 ITD) [4], 0.276 nM. In addition, the IC25 dose level with KG1 cells (FLT3 wt) (single agent cytotoxic assay) was 550 nM; in the data set with MOLM-13 cells (FLT3 ITD) [3], 75 nM; in the data set on MV4-11 cells (FLT3 ITD) [4] it was 0.829 nM. The IC75 dose level with KG1 cells (FLT3 wt) (single agent cytotoxic assay) amounted to 4950 nM; in the data set with MOLM-13 cells (FLT3 ITD) [3], 2770 nM; in the data set with MV4-11 cells (FLT3 ITD) [4], 7 nM. In the data set on AML, the safety entry was “safe”.
